These results are taken from patent US20220288037A1, “PRODRUGS AND FORMULATIONS THEREOF” (BOARD OF REGENTS OF THE UNIVERSITY OF NEBRASKA, priority 2019, published 2022).

This data set is described as follows: aqueous solubility of prodrug. The conditions noted are these: prodrug compared with parent drug, FIG. 1B. Format: physicochemical. The text has this:
FIGS. 1A-1D provide characterization of a prodrug of nitazoxanide ([…]) and a nanoformulation thereof (NM1NTZ). FIG. 1A provides a Fourier transform infrared (FT-IR) spectrum of […] showing absorption bands at 2915 cm^-1 and 2850 cm^-1, thereby confirming formation of the prodrug as well as the nuclear magnetic resonance spectroscopy of the compound. FIG. 1B provides a graph of the aqueous solubility of […]. […] FIG. 1C provides a graph of cell viability as evaluated by mitochondrial function in monocyte-derived macrophage (MDM) by a 3-(4,5-dimethylthiazol-2-yl)-2,5-diphenyltetrazolium bromide (MTT) assay. NM1NTZ exerted no adverse effects to cell viability at 400 μM of drug or less. FIG. 1D provides graphs showing the particle size, polydispersity index (PDI) and charge of the nanoformulations over time, thereby showing the stability of the nanoparticles.

For the compound `CCCCCCCCCCCCCCCCCC(=O)Oc1ccccc1C(=O)Nc1ncc([N+](=O)[O-])s1` [M1NTZ], the aqueous solubility result is listed as “decreased water solubility”.
